Laboratory results as given in patent US8815517B2, “Methods for identifying functionally related genes and drug targets” (Ribonomics, Inc., priority 1999, dated 2014).

Legend:
Format in all cases: cell-based, murine
G11 cells [1] = test: Quantitative PCR of CACN, CELSR and MBNL RNA expression in G11 cells over the time course of differentiation; settings: time course of one to nine days
Method: The expression of these three genes was analyzed by Quantitative RT-PCR during a time course of one to nine days of treatment with either dimethyl-sulfoxide or retinoic acid. To verify a role in neuronal differentiation, a comprehensive transcriptional analysis by Quantitative PCR was undertaken looking at the patterns of RNA expression for the […], and MBNL genes in the G11 cells (constitutively expressing HuB) and in the parental P19 cells (FIGS. 12A, 12B, and 12C).

G11 cells [2] = test: Induction of differentiation of HuB (Hel-N2) stably transfected P19 (G11) cells; settings: 5% DMSO, harvested after about eight days
Method: The cells were then plated into two 100 mm gelatin-coated tissue culture plates. Cells were harvested after an additional four days. […] Neuronal differentiation was induced by treating 5×10^5 G11 or P19 cells placed on a 60 mm petri dish with 0.5 μM RA (Sigma-Aldrich, St. Louis, Mo., Catalog # R2625). Muscle differentiation was induced by treating 5×10^5p19 cells placed on a 60 mm petri dish with 5% DMSO (Sigma-Aldrich, St. Louis, Mo., Catalog # D2650). After two days, 25% of the cells that had formed into clumps were removed, placed in new petri dishes, and supplemented with fresh medium and RA or DMSO. Following an additional two days, cell aggregates were washed once with phosphate-buffered saline (PBS) and trypsinized. The cells were then plated into two 100 mm gelatin-coated tissue culture plates. Cells were harvested after an additional four days. […] Cell extracts and immunoprecipitations were performed as described in Example 1. Monoclonal anti-gene 10 (g10) antibodies were obtained from Duke University (Durham, N.C.) as previously described in Examples 1 and 2.

G11 cells [3] = test: Microarray of total cellular RNA of G11 cells, differentiated/undifferentiated; settings: change in amount of RNA, day 1 and day 9
Method: Neuronal differentiation was induced by treating 5×10^5 G11 or P19 cells placed on a 60 mm petri dish with 0.5 μM RA (Sigma-Aldrich, St. Louis, Mo., Catalog # R2625). Muscle differentiation was induced by treating 5×10^5p19 cells placed on a 60 mm petri dish with 5% DMSO (Sigma-Aldrich, St. Louis, Mo., Catalog # D2650). After two days, 25% of the cells that had formed into clumps were removed, placed in new petri dishes, and supplemented with fresh medium and RA or DMSO. Following an additional two days, cell aggregates were washed once with phosphate-buffered saline (PBS) and trypsinized. The cells were then plated into two 100 mm gelatin-coated tissue culture plates. Cells were harvested after an additional four days. […] Cell extracts and immunoprecipitations were performed as described in Example 1. Monoclonal anti-gene 10 (g10) antibodies were obtained from Duke University (Durham, N.C.) as previously described in Examples 1 and 2. Following immunoprecipitation, the associated mRNAs were identified on high density mouse 12K glass slide microarrays (Mouse cDNA microarray kit, Catalog # […], Agilent Technologies, Palo Alto, Calif.). RNA labeling and microarray analysis was performed according to the manufacturer's protocols (Agilent Technologies, Palo Alto, Calif.).

| Structure (SMILES) | expression patterns of the CACN, CELSR and MBNL genes (G11 cells [1]) | muscle differentiation (morphology and markers) (G11 cells [2]) | ΔTotal Cellular RNA, CACN (G11 cells [3]) | ΔTotal Cellular RNA, CELSR (G11 cells [3]) [X] | ΔTotal Cellular RNA, MBNL (G11 cells [3]) |
| --- | --- | --- | --- | --- | --- |
| C[S+](C)[O-] [DMSO, dimethyl-sulfoxide] | failed to induce changes | displayed characteristic muscle cell markers and morphology |  |  |  |
| CC1=C(/C=C/C(C)=C/C=C/C(C)=C/C(=O)O)C(C)(C)CCC1 [RA, retinoic acid] |  |  | +1.31X | −1.33 | +1.42X |
